Results taken from patent publication EP0595743B1, “Bihaptinic derivatives for binding technetium or rhenium, process for their preparation, application for diagnosis and therapy, kits and immunological reactants comprising them” (priority 1992, dated 2001).

Assays:
[1] = test system: cellules hépatiques; settings: 2 µg antibody 679.1MC7 24 h earlier; 100 µCi (15 pmol) i.v.; 4 h after injection
Experimental: (§1) La liaison du dérivé de l'exemple 3 aux cellules hépatiques s'effectue par l'intermédiaire de sa liaison au site Ac de l'anticorps 679.1MC7, lui même lié par son fragment F(c) à ces cellules. Des souris ayant reçu 2µg d'anticorps 679.1MC7 24 heures plus tôt sont injectées par voie intraveineuse avec 100 µCi (15 pmol) de dérivé de l'exemple 3. Les images sont réalisées avec une caméra Sopha Medical Gammatome 2 équipée avec un collimateur haute résolution de moyenne énergie, puis les animaux sont sacrifiés et la radioactivité présente dans le foie est déterminée à l'aide d'un compteur gamma. […] 100 µCi de dérivé de l'exemple 3 sont injectés à une souris ayant reçu quelques minutes plus tôt 1µg de conjugué anticorps CY34-679.1MC7 (anti-lyb8.2-anti-Histamine-Succinyl-Glycine). Les images sont enregistrées comme indiqué dans l'exemple précédent. […] Des cellules de tumeurs colorectales humaines (cellules LS 174, 3.10^6) sont injectées par voie sous cutanée à des souris nudes. […] Les souris reçoivent alors 2µg de conjugué anticorps F6-679.1MC7 (antiCEA-anti-Histamine-Succinyl-Glycine). Vingt quatre heures plus tard les souris reçoivent 6,7µCi (1pmol) de dérivé de l'exemple 3. Six heures plus tard les images sont enregistrées comme indiqué dans l'exemple précédent puis les animaux sacrifiés.

[2] = test system: lymphocytes de souris BALB/c qui expriment l'antigène Lyb 8.2; settings: 1 µg conjugate CY34-679.1MC7 a few minutes earlier; 100 µCi; 4 h after injection
Experimental: as §1

[3] = test system: tumeurs colorectales humaines (LS174); settings: 2 µg conjugate F6-679.1MC7 24 h earlier, 6,7 µCi (1 pmol)
Experimental: as §1

[4] = test system: cellules LS-174 T; settings: LS-174 T cells 7.10^6/ml, 4 °C, 2 h; nanomolar concentrations of bispecific antibody (anti-CEA/anti-histamine-succinyl-glycine); maximum binding
Experimental: Des cellules LS-174 T (7.10^6 cellules/ml), cellules d'origine humaine connues pour exprimer à leur surface l'antigène carcino-embryonnaire, sont incubées à 4° C pendant 2 heures dans des tubes contenant un tampon phosphate isotonique à pH 7,3. Dans ces tubes, ont été ajoutés à des concentrations variables le conjugué bispécifique approprié (anti-antigène carcino-embryonnaire/anti-histamine-succinyl-glycine), marqué à l'iode-125 suivant une des techniques bien connues et la sonde, marquée au ^99mTc comme décrit ci-dessus. Ces concentrations sont calculées pour couvrir un domaine s'étendant de concentrations très inférieures à très supérieures à la concentration de l'antigène cible dans le mélange. A la fin de cette incubation, 100 µl de mélange sont transférés en triplicates dans des tubes contenant un mélange de phthalates. Les tubes sont centrifugés 30 secondes à environ 5000 g. Les cellules, plus denses que les phthalates, forment un culot alors que le surnageant reste à la surface. On peut alors compter séparément les activités (^125I et ^99mTc) liées aux cellules et les activités non liées et en calculer les rapports.

^99mTc mercaptoacétyl-Glycyl-Glycyl-Glycyl-N-ε-(Histamine-Succinyl-Glycine)-Lysyl-D-Tyrosyl-N-ε-(Histamine-Succinyl-Glycine)-Lysinamide [Exemple 3]
% de la dose injectée localisée dans le foie [1]: 54 ± 6 % de la dose injectée
scintigraphie du foie [1]: apparent en scintigraphie
% de la dose injectée localisée dans la rate [2]: 43 ± 3 % de la dose injectée
scintigraphie de la rate [2]: apparente en scintigraphie
visibilité des tumeurs [3]: visibles dès trois heures après l'injection
localisation de la radioactivité ([3]; 6 h after injection): 9,8 ± 3,7 % / g de tumeur
rapport de marquage tumeur/plasma ([3]; 6 h after injection): 2.0 + 0.5
pourcentage de sonde lié par rapport à sa quantité totale [4]: ~70%
